The values below come from patent US20260273074A1, “FERRITIN-TARGETING PROTACS AND METHODS OF INDUCING PYROPTOSIS” (Wisconsin Alumni Research Foundation, priority 2023, published 2026).

Data set [1] concerns B16F10 cells. In words: ROS detection with DCFH-DA. The format is cell-based, murine. The conditions noted are these: 5 μM, 8 h, compared to DeFer-2epi and VHL ligand plus OA. On the procedure: ROS detection: DCFH-DA was used to evaluate the generation of intracellular ROS in cancer cells. 5×10^4 B16F10 cells were seeded in confocal dishes and cultured for 24 h at 37° C. […] After incubation for 8 h, cells were stained with DCFH-DA (10 μM) for 30 min. Finally, the cells were washed with PBS and subjected to Leica SP8 Confocal WLL STED Microscope for observation.

In data set [2] the test system is B16F10 cells. In words: Morphology observation (pyroptosis). Format: cell-based, murine. The conditions noted are these: 5 μM, 24 h. How it is done: Morphology observation: 5×10^4 B16F10 cells were seeded in confocal dishes and cultured for 24 h at 37° C. […] After incubation for 24 h, the cells were washed with PBS and subjected to a Nikon Eclipse Ti Intensilight fluorescence microscope in a phase contrast mode for observation.

The subject of data set [3] is B16F10 cells. In words: Cell viability evaluation by CCK-8 assay. The conditions noted are these: for IC50: Mus musculus, read-out: IC50 of cell viability. On the procedure: Cell viability evaluation: The cell viability of B16F10 cells treated with ferritin degraders with or without various inhibitors was evaluated by CCK-8 assay. Briefly, 5×10^3 cells were seeded in 96-well plates and cultured for 24 h for attachment. Then the medium in the corresponding wells, except the control, was replaced with 100 μL of medium containing the indicated degrader formulations with concentrations of 0.008, 0.04, 0.2, 1, and 5 μM. After incubation for 24 or 48 h, CCK-8 reagent was added and interacted with cells at 37° C. for 1 h. The absorbance was measured by a microplate reader (Infinite M Plex) at the detection wavelength of 450 nm.
For blocking assays with Z-VAD, NSCI, and VX-765, 5×10^3 cells were seeded in 96-well plates and cultured 24 h for attachment. Then the medium in the corresponding wells, except the control, was replaced with 100 μL of medium containing Z-VAD (10 μM), NSCI (0.1 μM), or VX-765 (10 μM). […] Following another 24-h incubation, CCK-8 reagents were added and interacted with cells at 37° C. for 1 h. The absorbance was measured by a microplate reader (Infinite® M Plex) at the detection wavelength of 450 nm. For blocking assays with DFOM, 5×10^3 cells were seeded in 96-well plates and cultured 24 h for attachment. […] Following another 20-h incubation, CCK-8 reagents were added and interacted with cells at 37° C. for 1 h. The absorbance was measured by a microplate reader (Infinite® M Plex) at the detection wavelength of 450 nm.
For orientation: Tetrazolium dyes change colour on reduction, which living cells bring about.

Another data set relates to cleaved caspase 3. Put plainly: Western blot of cleaved caspase 3 in B16F10 cells. The format is cell-based, murine. The conditions noted are these: 8 h. How it is done: As for the determination of cleaved-GSDME and cleaved-caspase-3, B16F10 cells were seeded in 6-well culture plates (2×10^5 cells per well) and cultured for 24 h. Then the medium in the corresponding wells except the negative control was replaced with 1 mL of medium containing ferritin degraders, albumin nanoparticles, or the degrader with inhibitors at the indicated concentrations. Incubation for another 6 or 8 h was used to test the cleaved-caspase-3, while treatment for another 16 or 20 h was used to test cleaved-GSDME. The following procedures were the same as mentioned above.
Background: Immunoblotting shows a protein as a band on a membrane.

The subject of a further data set is T1, ferritin (Mus musculus).
T1 construct: ferritin expression levels in B16F10 cells were evaluated; endogenous in cells; host or cells: B16F10 (murine melanoma)
Put plainly: Quantitative proteomics analysis of whole-cell B16F10 proteins. Conditions: B16F10 cells, 0.5 μM, 12 h. The format is cell-based, murine. How it is done: Quantitative proteomics analysis: Cell culture and proteomic sample preparation: B16F10 cells were seeded in T75 cell culture flasks (2×10^6 cells per well) and cultured for 24 h. […] After incubation for 12 h, cells were washed with cold PBS twice and digested with 2 mL trypsin. The cell pellets were collected in 1.5 mL Eppendorf tubes through centrifugation at 1200 rpm for 3 minutes at 4° C. As for the proteomic sample preparation, cell pellets placed on the ice were completely resuspended with a cold 100 mM ammonium bicarbonate (ABC) solution. […] Based on the quantification results, an appropriate volume of lysate supernatant containing 20 μg proteins was collected and incubated with 10 mM DL-dithiothreitol (DTT) at 37° C. for 30 min. […]
LC-MS/MS analysis: The LC separations were performed with a Waters™ Nano-Acquity UPLC System. […] Eluted peptides were analyzed on Thermo Orbitrap Q-Exactive™ MS operated in positive ion mode with nano-ESI high-resolution Q-Exactive™ analysis. […]
Data analysis: All the resulting raw files were analyzed using Proteome Discoverer software v.2.4 (Thermo Fisher Scientific), SEQUEST HT using Uniprot Mus musculus reference proteome with a decoy database added to establish control variability and false discovery rates. […]

Each structure is given as a SMILES string. Like-named read-outs stand apart in the source and are kept apart here.

Consider `CCCCCCCCC=CCCCCCCCC(=O)NCCCC(=O)NC(C(=O)N1CC(O)CC1C(=O)NCc1ccc(-c2scnc2C)cc1)C(C)(C)C` (centres unmarked) [DeFer-2], for which, in the data set on B16F10 cells [1], the ROS level result is reported as “sharp rise in the ROS level”. Also, the “morphology of dying cells” value with B16F10 cells [2] was “obvious swelling and characteristic membrane blebbing”. In addition, the “cytotoxicity against B16F10 cells” value in the data set on B16F10 cells [3] is recorded as “severe cytotoxicity”. The IC50 in the data set with B16F10 cells [3] (B16-F10, 24 h) turned out to be 3.1 µM; in the data set with B16F10 cells [3] (B16-F10, 48 h) it was 1.5 µM. For the same molecule, the “level of cleaved caspase 3” value in the data set with cleaved caspase 3 is on record as “increased the level of cleaved caspase 3 in a dose-dependent manner”. In the data set on ferritin (Mus musculus) (proteomics), the “reduction of ferritin levels compared to DeFer-2epi” value was 44.1%. Moreover, in the data set with ferritin (Mus musculus) (versus DeFer-2epi), the “selectivity of ferritin degradation (global protein abundance)” value is “strong on-target effect”.

Usually IC50 stands for the midpoint of a concentration-inhibition curve.
